The text below walks through data of patent US20260184710A1, “CASITAS B-LINEAGE LYMPHOMA PROTOONCOGENE B (CBL-B) DEGRADING COMPOUNDS AND ASSOCIATED METHODS OF USE” (Arvinas Operations, Inc., priority 2022, published 2026).

Test [1] addresses T1, Cbl-b (Homo sapiens, UniProt Q13191).
T1 construct: Cbl-b-HiBit KI Jurkat Cells were purchased from Promega; host or cells: Cbl-b-HiBiT knock-in Jurkat cells
The experiment in a line: Cbl-b Degradation Method B (Nano-Glo HiBiT lytic detection). Format: cell-based. The following applies: Cbl-b-HiBit KI Jurkat Cells, incubated at least 6-24 hours; for DC50: half maximal degradation, read-out: Cbl-b Degredation Method B IC50; for Dmax: maximum degradation observed, read-out: Cbl-b Degredation Method B Dmax (%). In a few lines:
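Cbl-b-HiBiT knock-in Jurkat cells (20,000/well) were treated after ~24 h plating with an 11-point 1:3 series for 6-24 h at 37° C. Remaining Cbl-b measured by Nano-Glo HiBiT lytic luminescence. DC50 and Dmax expressed as % of control.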
In general terms: With HiBiT, luminescence reflects the tagged protein that the partner subunit can reach.

The target in test [2] is T1, Cbl-b. The experiment in a line: Cbl-b Degradation Method A (FACS, anti-Cbl-b antibody staining). Format: cell-based. The following applies: Cbl-b-HiBit KI Jurkat Cells, incubated at least 20 hours; for DC50: half maximal degradation, read-out: Cbl-b Degredation Method A IC50; for Dmax: Jurkat, maximum degradation observed, read-out: Cbl-b Degredation Method A Dmax (%). In a few lines: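 Cbl-b-HiBit KI Jurkat cells treated with compound for at least 20 h at 37 °C, then fixed, permeabilized and stained with anti-Cbl-b antibody plus anti-rabbit AF488 secondary. Cbl-b levels read by FACS; DC50 and Dmax (percent of control) derived.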

T1 sequence (Q13191 whole entry): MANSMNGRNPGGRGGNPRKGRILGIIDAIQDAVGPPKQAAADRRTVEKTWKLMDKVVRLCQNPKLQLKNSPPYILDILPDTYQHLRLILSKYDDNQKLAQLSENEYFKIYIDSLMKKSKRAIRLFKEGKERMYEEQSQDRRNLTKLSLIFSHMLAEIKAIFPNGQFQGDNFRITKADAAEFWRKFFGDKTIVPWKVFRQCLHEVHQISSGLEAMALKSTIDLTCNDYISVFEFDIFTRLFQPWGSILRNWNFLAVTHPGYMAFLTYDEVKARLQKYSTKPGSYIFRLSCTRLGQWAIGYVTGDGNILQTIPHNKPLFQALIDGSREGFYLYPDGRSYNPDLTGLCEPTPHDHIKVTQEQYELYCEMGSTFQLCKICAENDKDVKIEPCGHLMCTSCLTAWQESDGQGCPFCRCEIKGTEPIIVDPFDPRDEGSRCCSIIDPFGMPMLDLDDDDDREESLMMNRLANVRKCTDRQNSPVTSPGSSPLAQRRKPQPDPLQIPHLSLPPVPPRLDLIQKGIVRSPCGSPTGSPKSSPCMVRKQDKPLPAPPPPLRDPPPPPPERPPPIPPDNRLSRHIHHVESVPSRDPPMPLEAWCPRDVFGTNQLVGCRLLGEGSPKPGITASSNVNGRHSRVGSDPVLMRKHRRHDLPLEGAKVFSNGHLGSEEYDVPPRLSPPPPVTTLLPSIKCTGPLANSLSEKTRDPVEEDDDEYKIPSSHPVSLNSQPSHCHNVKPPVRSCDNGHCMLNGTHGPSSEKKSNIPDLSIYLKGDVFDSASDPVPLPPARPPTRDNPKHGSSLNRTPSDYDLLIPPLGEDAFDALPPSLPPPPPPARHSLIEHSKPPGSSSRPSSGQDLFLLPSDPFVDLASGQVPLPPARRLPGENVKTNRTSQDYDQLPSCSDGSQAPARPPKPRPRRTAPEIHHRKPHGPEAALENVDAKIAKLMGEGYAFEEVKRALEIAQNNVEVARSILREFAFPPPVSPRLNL

Turning to `Cn1cnnc1CC1(c2cccc(N3Cc4c(cc(CN5CCC[C@H](CN6CCC(CN7CC8(C7)CN(c7ccc9c(c7)C(=O)N(C7CCC(=O)NC7=O)C9=O)C8)CC6)C5)cc4C(F)(F)F)C3=O)c2)COC1` (stereo partly drawn) [Example 114, 2-(2,6-dioxopiperidin-3-yl)-5-{6-[(1-{[(3R)-1-{[2-(3-{3-[(4-methyl-4H-1,2,4-triazol-3-yl)methyl]oxetan-3-yl}phenyl)-3-oxo-7-(trifluoromethyl)-2,3-dihydro-1H-isoindol-5-yl]methyl}piperidin-3-yl]methyl}piperidin-4-yl)methyl]-2,6-diazaspiro[3.3]heptan-2-yl}-2,3-dihydro-1H-isoindole-1,3-dione], on Cbl-b [1], the DC50 was in the range of 0.005 to 0.05 µM and the Dmax (as a rule, the largest share of the target that was removed) is less than 35%. For the same molecule, at Cbl-b [2], the DC50 fell in the range of 0.005 to 0.05 µM and the Dmax was less than 35%.
For the molecule `Cn1cnnc1CC1(c2cccc(N3Cc4c(cc(N5CC6(CCN(CC7CCN(c8ccc9c(c8)C(=O)N(C8CCC(=O)NC8=O)C9=O)CC7)CC6)C5)cc4C(F)(F)F)C3=O)c2)COC1` (stereo not shown) [Example 115, 2-(2,6-dioxopiperidin-3-yl)-5-[4-({2-[2-(3-{3-[(4-methyl-4H-1,2,4-triazol-3-yl)methyl]oxetan-3-yl}phenyl)-3-oxo-7-(trifluoromethyl)-2,3-dihydro-1H-isoindol-5-yl]-2,7-diazaspiro[3.5]nonan-7-yl}methyl)piperidin-1-yl]-2,3-dihydro-1H-isoindole-1,3-dione], on Cbl-b [1], the DC50 was 0.005 to 0.05 µM and the Dmax lay in the range of 35 to 70%. Besides, at Cbl-b [2], the DC50 is 0.005 to 0.05 µM and the Dmax was in the range of 35 to 70%.
On to `Cn1cnnc1CC1(c2cccc(N3Cc4c(cc(N5CC6(CCN(c7cc8c(cc7F)C(=O)N(C7CCC(=O)NC7=O)C8=O)CC6)C5)cc4C(F)(F)F)C3=O)c2)COC1` (stereo not shown) [Example 116, 2-(2,6-dioxopiperidin-3-yl)-5-fluoro-6-{2-[2-(3-{3-[(4-methyl-4H-1,2,4-triazol-3-yl)methyl]oxetan-3-yl}phenyl)-3-oxo-7-(trifluoromethyl)-2,3-dihydro-1H-isoindol-5-yl]-2,7-diazaspiro[3.5]nonan-7-yl}-2,3-dihydro-1H-isoindole-1,3-dione], for which the DC50 at Cbl-b [1] and on Cbl-b [2] was greater than 0.5 µM throughout.
`Cn1cnnc1CC1(c2cccc(N3Cc4c(cc(N5CC6(CCN(CC7CCN(c8ccc9c(c8)CN(C8CCC(=O)NC8=O)C9=O)CC7)CC6)C5)cc4C(F)(F)F)C3=O)c2)COC1` (stereo not shown) [Example 117, 3-{5-[4-({2-[2-(3-{3-[(4-methyl-4H-1,2,4-triazol-3-yl)methyl]oxetan-3-yl}phenyl)-3-oxo-7-(trifluoromethyl)-2,3-dihydro-1H-isoindol-5-yl]-2,7-diazaspiro[3.5]nonan-7-yl}methyl)piperidin-1-yl]-1-oxo-2,3-dihydro-1H-isoindol-2-yl}piperidine-2,6-dione]: on Cbl-b [1], the DC50 was less than 0.005 µM and the Dmax lay within 35 to 70%. Besides, on Cbl-b [2], the DC50 was less than 0.005 µM and the Dmax was in the range of 35 to 70%.
As for `Cn1cnnc1CC1(c2cccc(N3Cc4c(cc(N5CCC(CC6CCN(c7cc8c(cc7F)C(=O)N(C7CCC(=O)NC7=O)C8=O)CC6)CC5)cc4C(F)(F)F)C3=O)c2)COC1` (stereo not shown) [Example 118, 2-(2,6-dioxopiperidin-3-yl)-5-fluoro-6-[4-({1-[2-(3-{3-[(4-methyl-4H-1,2,4-triazol-3-yl)methyl]oxetan-3-yl}phenyl)-3-oxo-7-(trifluoromethyl)-2,3-dihydro-1H-isoindol-5-yl]piperidin-4-yl}methyl)piperidin-1-yl]-2,3-dihydro-1H-isoindole-1,3-dione], the DC50 on Cbl-b [1] and on Cbl-b [2] was greater than 0.5 µM each time.
In the case of `Cn1cnnc1CC1(c2cccc(N3Cc4c(cc(N5CC6(CCN(CC7CCN(c8cccc9c8CN(C8CCC(=O)NC8=O)C9=O)CC7)CC6)C5)cc4C(F)(F)F)C3=O)c2)COC1` (stereo not shown) [Example 119, 3-{4-[4-({2-[2-(3-{3-[(4-methyl-4H-1,2,4-triazol-3-yl)methyl]oxetan-3-yl}phenyl)-3-oxo-7-(trifluoromethyl)-2,3-dihydro-1H-isoindol-5-yl]-2,7-diazaspiro[3.5]nonan-7-yl}methyl)piperidin-1-yl]-1-oxo-2,3-dihydro-1H-isoindol-2-yl}piperidine-2,6-dione], the DC50 at Cbl-b [1] is less than 0.005 µM; at Cbl-b [2] it was 0.005 to 0.05 µM. Further, the Dmax at Cbl-b [1] and at Cbl-b [2] was less than 35% in each case.
In the case of `Cn1cnnc1CC1(c2cccc(N3Cc4c(cc(N5CC(C6CN(c7ccc8c(c7)C(=O)N(C7CCC(=O)NC7=O)C8=O)C6)C5)cc4C(F)(F)F)C3=O)c2)COC1` (stereo not shown) [Example 121, 2-(2,6-dioxopiperidin-3-yl)-5-{1′-[2-(3-{3-[(4-methyl-4H-1,2,4-triazol-3-yl)methyl]oxetan-3-yl}phenyl)-3-oxo-7-(trifluoromethyl)-2,3-dihydro-1H-isoindol-5-yl]-[3,3′-biazetidin]-1-yl}-2,3-dihydro-1H-isoindole-1,3-dione], the results for the DC50 on Cbl-b [1] and at Cbl-b [2] were greater than 0.5 µM and 0.005 to 0.05 µM, respectively.
On to `Cn1cnnc1CC1(c2cccc(N3Cc4c(cc(N5CCN(CC6CCN(c7ccc8c(c7)C(=O)N(C7CCC(=O)NC7=O)C8=O)CC6)CC5)cc4C(F)(F)F)C3=O)c2)COC1` (stereo not shown) [Example 122, 2-(2,6-dioxopiperidin-3-yl)-5-[4-({4-[2-(3-{3-[(4-methyl-4H-1,2,4-triazol-3-yl)methyl]oxetan-3-yl}phenyl)-3-oxo-7-(trifluoromethyl)-2,3-dihydro-1H-isoindol-5-yl]piperazin-1-yl}methyl)piperidin-1-yl]-2,3-dihydro-1H-isoindole-1,3-dione], for which the results for the DC50 at Cbl-b [1] and at Cbl-b [2] were greater than 0.5 µM and 0.05 to 0.5 µM, respectively.
For the molecule `Cn1cnnc1CC1(c2cccc(N3Cc4c(cc(N5CC6(CN(c7ccc8c(c7)C(=O)N(C7CCC(=O)NC7=O)C8=O)C6)C5)cc4C(F)(F)F)C3=O)c2)COC1` (stereo not shown) [Example 123, 2-(2,6-dioxopiperidin-3-yl)-5-{6-[2-(3-{3-[(4-methyl-4H-1,2,4-triazol-3-yl)methyl]oxetan-3-yl}phenyl)-3-oxo-7-(trifluoromethyl)-2,3-dihydro-1H-isoindol-5-yl]-2,6-diazaspiro[3.3]heptan-2-yl}-2,3-dihydro-1H-isoindole-1,3-dione], on Cbl-b [1], the DC50 is greater than 0.5 µM. In addition, at Cbl-b [2], the DC50 is 0.05 to 0.5 µM and the Dmax lay within 35 to 70%.
Consider `Cn1cnnc1CC1(c2cccc(N3Cc4c(cc(N5CCC(C6CCN(c7ccc8c(c7)C(=O)N(C7CCC(=O)NC7=O)C8=O)CC6)CC5)cc4C(F)(F)F)C3=O)c2)COC1` (stereo not shown) [Example 124, 2-(2,6-dioxopiperidin-3-yl)-5-{1′-[2-(3-{3-[(4-methyl-4H-1,2,4-triazol-3-yl)methyl]oxetan-3-yl}phenyl)-3-oxo-7-(trifluoromethyl)-2,3-dihydro-1H-isoindol-5-yl]-[4,4′-bipiperidin]-1-yl}-2,3-dihydro-1H-isoindole-1,3-dione], for which the DC50 at Cbl-b [1] and on Cbl-b [2] was greater than 0.5 µM throughout.
As to `Cn1cnnc1CC1(c2cccc(N3Cc4c(cc(N5CCC6(CCN(c7ccc8c(c7)C(=O)N(C7CCC(=O)NC7=O)C8=O)CC6)CC5)cc4C(F)(F)F)C3=O)c2)COC1` (stereo not shown) [Example 125, 2-(2,6-dioxopiperidin-3-yl)-5-{9-[2-(3-{3-[(4-methyl-4H-1,2,4-triazol-3-yl)methyl]oxetan-3-yl}phenyl)-3-oxo-7-(trifluoromethyl)-2,3-dihydro-1H-isoindol-5-yl]-3,9-diazaspiro[5.5]undecan-3-yl}-2,3-dihydro-1H-isoindole-1,3-dione], the DC50 on Cbl-b [1] and on Cbl-b [2] was greater than 0.5 µM in each case.
As for `Cn1cnnc1CC1(c2cccc(N3Cc4c(cc(N5CC6(CCN(c7ccc8c(c7)C(=O)N(C7CCC(=O)NC7=O)C8=O)C6)C5)cc4C(F)(F)F)C3=O)c2)COC1` (stereo not shown) [Example 126, 2-(2,6-dioxopiperidin-3-yl)-5-{2-[2-(3-{3-[(4-methyl-4H-1,2,4-triazol-3-yl)methyl]oxetan-3-yl}phenyl)-3-oxo-7-(trifluoromethyl)-2,3-dihydro-1H-isoindol-5-yl]-2,6-diazaspiro[3.4]octan-6-yl}-2,3-dihydro-1H-isoindole-1,3-dione], the DC50 at Cbl-b [1] and at Cbl-b [2] was greater than 0.5 µM throughout.
With `Cn1cnnc1CC1(c2cccc(N3Cc4c(cc(N5CCC6(C5)CN(c5ccc7c(c5)C(=O)N(C5CCC(=O)NC5=O)C7=O)C6)cc4C(F)(F)F)C3=O)c2)COC1` (stereo not shown) [Example 127, 2-(2,6-dioxopiperidin-3-yl)-5-{6-[2-(3-{3-[(4-methyl-4H-1,2,4-triazol-3-yl)methyl]oxetan-3-yl}phenyl)-3-oxo-7-(trifluoromethyl)-2,3-dihydro-1H-isoindol-5-yl]-2,6-diazaspiro[3.4]octan-2-yl}-2,3-dihydro-1H-isoindole-1,3-dione], the DC50 on Cbl-b [1] and at Cbl-b [2] was greater than 0.5 µM in each case.
`Cn1cnnc1CC1(c2cccc(N3Cc4c(cc(N5CCC(C6CN(c7ccc8c(c7)C(=O)N(C7CCC(=O)NC7=O)C8=O)C6)CC5)cc4C(F)(F)F)C3=O)c2)COC1` (stereo not shown) [Example 128, 2-(2,6-dioxopiperidin-3-yl)-5-(3-{1-[2-(3-{3-[(4-methyl-4H-1,2,4-triazol-3-yl)methyl]oxetan-3-yl}phenyl)-3-oxo-7-(trifluoromethyl)-2,3-dihydro-1H-isoindol-5-yl]piperidin-4-yl}azetidin-1-yl)-2,3-dihydro-1H-isoindole-1,3-dione]: the DC50 at Cbl-b [1] and at Cbl-b [2] was greater than 0.5 µM each time.
